The values below are quoted from earlier work in patent US20100322892A1, “PESTICIDE COMPOSITIONS AND APPLICATORS” (BASF CORPORATION, priority 2009, published 2010).

For one data set, the system named is termites. As to conditions: in vivo.
The test system of the next data set is ants. As to conditions: in vivo.

As to `N#Cc1nn(-c2c(Cl)cc(C(F)(F)F)cc2Cl)c(N)c1[S+]([O-])C(F)(F)F` (racemic) [fipronil, (±)-5-amino-1-(2,6-dichloro-α,α,α-trifluoro-p-tolyl)-4-trifluoromethylsulfinylpyrazole-3-carbonitrile], in the data set with termites, the “Dose toxic to termites” value is 2 nanograms per termite. Also, in the data set on ants, the “Dose toxic to ants” value is given as “about 1 nanogram per ant”.
